Assay results reported in patent US20180133221A1, “ADMINISTRATION OF UBIQUITIN-ACTIVATING ENZYME INHIBITOR AND CHEMOTHERAPEUTIC AGENTS” (Millennium Pharmaceuticals, Inc., priority 2014, published 2018).
Read-outs that look alike come from different tables or passages of the source.

Columns and labels:
[1] = tested on: CTG-0159 human lung NSCLC xenograft; test: CTG-0159 xenograft model, Compound 1 and docetaxel; format: in vivo, Mus musculus/nu/nu mice; settings: for Tumor Volume Day 21: in mm³ (unit assumed)
Description: (§1) Docetaxel (Henry Schein, Inc., Pittsburgh Pa.) is formulated in 0.9% saline and administered by intravenous injection (IV) once weekly (QW) at 5 mg/kg or 10 mg/kg. […] Tumors were measured twice weekly using vernier calipers.

[2] = tested on: CTG-0012 human primary triple negative breast cancer model; test: CTG-0012 xenograft model, Compound 1 and paclitaxel; format: in vivo, Mus musculus/nu/nu mice; settings: for Tumor Volume Day 21: in mm³ (unit assumed)
Description: Paclitaxel (Bristol-Myers Squibb Company) is formulated in 0.9% saline and administered by intravenous injection (IV) on every 4 days (Q4D) or once weekly (QW) at 10 and 20 mg/kg. […] Tumors were measured twice weekly using vernier calipers.

[3] = tested on: CTG-0256 human ovarian xenograft; test: CTG-0256 xenograft model, Compound 1 and carboplatin; format: in vivo, Mus musculus/nu/nu mice; settings: for Volume Tumor Day 14: in mm³ (unit assumed)
Source text: The CTG-0256 model of human ovarian xenograft model was established from a patient-derived tumor collected during surgery at primary site from a person with ovarian cancer (serous adenocarcinoma with resistant response to carboplatin or paclitaxel). CTG-0256 tumor fragments (approximately 2×2×3 mm^3) were implanted into the subcutaneous space in the right dorsal flank of female Mus musculus/nu/nu mice (age 6-9 weeks, Harlan Laboratories, Madison, Wis.) using a 13-gauge trocar. When the mean tumor volume reached approximately 150 mm^3, the animals were randomized into 7 treatment groups (n=7/group).
Carboplatin (Teva Pharmaceuticals) is formulated in 0.9% saline and administered by IP injection once weekly (QW) at 25, 50, 60, and 75 mg/kg. The once weekly schedule is also described as every 7 days (Q7D).
(§2) Compound 1 [((1R,2R,3S,4R)-2,3-dihydroxy-4-(2-(3-(trifluoromethylthio)-phenyl)pyrazolo[1,5-a]pyrimidin-7-ylamino)cyclopentyl)methyl sulfamate] is formulated in 10-20% HPbCD in sterile water and administered intravenously (IV) or subcutaneously (SC) on a BIW (twice/week schedule; Monday and Thursday or Tuesday and Friday) for either 2-4 weeks.
(§3) Tumors were measured twice weekly using vernier calipers. Tumor volumes were calculated using the standard formula V=W^2×L/2,). When mean tumor volumes reached approximately 200 mm^3 for PHTX-24C, 220 mm^3 for PHTX-Lu132, 150 mm^3 for CTG-0256, 260 mm^3 for CTG-0486, 185 mm^3 for PHTX-17C, 260 mm^3 for CTG-0165, 150 mm^3 for PHTX-14B in the study of Compound 1 and paclitaxel, 180 mm^3 for PHTX-14B in the study of Compound 1 and docetaxel, 200 mm^3 for SKOV-3, 220 mm^3 for PHTX-02B in the study of Compound 1 and docetaxel, 250 mm^3 for PHTX-02B in the study of Compound 1 and paclitaxel, 195 mm^3 for CTG-0159, 180 mm^3 for CTG-0012 or 150 mm^3 for Calu-6, mice were randomized into groups of n=5-7/arm as described in the tables below, and injected with vehicle, Compound 1 or agents (docetaxel, paclitaxel, oxaliplatin, cisplatin or carboplatin), or the combination of Compound 1 plus one of the agents, at various doses and schedules as described in tables below. Tumor size and body weight were measured approximately twice a week for the duration of the study. Mice are euthanized when their tumor volume reached 10% of their body weight, or when the average tumor volume of a treatment or control group reached approximately 2000 mm^3. Tumor growth continued to be monitored after the dosing period in some studies. Average tumor volume is reported as a function of time for selected arms of selected studies in the Figures.
(§4) Measurements from day 0 to day 14, day 19, day 21, or day 28 are analyzed as specified in Tables below. All tumor volumes have a value of 1 added to them before log10 transformation. For each animal, the log tumor volume at day 0 is subtracted from the log tumor volume on the subsequent days. This difference vs. time is used to calculate an area under the curve (AUC) for each animal using the trapezoid rule. […] The synergy score for the combination of agents A and B is defined as
(§5) 100*(mean(AUCAB)−mean(AUCA)−mean(AUCB)+mean(AUCctl))/mean(AUCctl):
(§6) where AUCAB, AUCA, AUCB, and AUCctl are the AUC values for animals in the combination group, the A group, the B group, and the control group, respectively. The standard error of the synergy score is computed based on the variation in the AUC values among the animals. […] If the P-value is above 0.05, then the combination is considered to be additive. If the P-value is below 0.05, and the synergy score is less than zero, then the combination is considered to be synergistic.

[4] = tested on: PHTX-14B breast xenograft; test: PHTX-14B xenograft model, Compound 1 and docetaxel; format: in vivo, nude mice; settings: for Tumor Volume Day 28: in mm³ (unit assumed)
Description: as §1

[5] = tested on: PHTX-17C colorectal carcinoma xenograft; format: in vivo; settings: for Tumor Volume Day 21: in mm³ (unit assumed)
Source text: The PHTX-17C colorectal carcinoma xenograft model was established from a patient-derived tumor collected during surgery from a person with moderately differentiated adenocarcinoma.PHTX-17C tumor fragments (approximately 2×2×3 mm^3) were implanted into the subcutaneous space in the right dorsal flank of female nude mice (age 5-7 weeks, Balb/c Nude Mice, Shanghai SINO-British SIPPR/BK Lab Animal Ltd, Shanghai, China) using a 13-gauge trocar. When the mean tumor volume reached approximately 185 mm^3, the animals were randomized into 12 treatment groups (n=5/group).
Oxaliplatin (Jiang Su Geng Rui Pharmaceuticals, Inc.) is formulated in 0.9% saline and administered by IP injection once weekly (QW) at 7.5 or 12.5 mg/kg. The once weekly schedule is also described as every 7 days (Q7D).
as §2, §3, §4, §5, §6

NS(=O)(=O)OC[C@H]1C[C@@H](Nc2ccnc3cc(-c4cccc(SC(F)(F)F)c4)nn23)[C@H](O)[C@@H]1O [Compound 1, ((1R,2R,3S,4R)-2,3-dihydroxy-4-(2-(3-(trifluoromethylthio)phenyl)pyrazolo[1,5-a]pyrimidin-7-ylamino)cyclopentyl)methyl sulfamate]
Tumor Volume Day 21 ([1]; 6.25 mg/kg Compound 1 BIWx3 IV): 1618.9 | Tumor Volume Day 21 ([1]; 15 mg/kg Compound 1 BIWx3 IV): 2373.2 | Tumor Volume Day 21 ([1]; 20 mg/kg Compound 1 BIWx3 IV): 1376.2 | tumor growth ([1]; Compound 1 alone at 20, 15, and 6.25 mg/kg IV BIW): did not inhibit tumor growth | Tumor Volume Day 21 ([2]; 6.25 mg/kg Compound 1 BIWx3 IV): 815 | Tumor Volume Day 21 ([2]; 15 mg/kg Compound 1 BIWx3 IV): 185 | Tumor Volume Day 21 ([2]; 20 mg/kg Compound 1 BIWx3 IV): 47.4 | anti-tumor activity compared to vehicle control ([2]; single agent Compound 1 IV at 6.25, 15, and 20 mg/kg BIW for 3 weeks): modest to strong anti-tumor activity | Volume Tumor Day 14 ([3]; 6.25 mg/kg Compound 1 BIWx2 IV): 1291.5 | Volume Tumor Day 14 ([3]; 15 mg/kg Compound 1 BIWx2 IV): 1638.6 | Volume Tumor Day 14 ([3]; 20 mg/kg Compound 1 BIWx2 IV): 1406.7 | anti-tumor activity compared to vehicle control ([3]; single agent Compound 1 IV at 20, 15, 6.25 mg/kg BIW): modest to weak anti-tumor activity | Tumor Volume Day 28 ([4]; 10 mg/kg Compound 1 BIWx3 SC): 499.4 | Tumor Volume Day 28 ([4]; 20 mg/kg Compound 1 BIWx3 SC): 399.4 | tumor growth compared to the vehicle control group ([4]; single agent Compound 1 SC at 20 and 10 mg/kg BIW): inhibited tumor growth | Tumor Volume Day 21 ([5]; 20 mg/kg Compound 1 BIWx3 IV): 1875.6 | Tumor Volume Day 21 ([5]; 25 mg/kg Compound 1 BIWx3 IV): 2159.3 | Tumor Volume Day 21 ([5]; 30 mg/kg Compound 1 BIWx3 IV): 1612.7 | anti-tumor activity compared to vehicle control ([5]; single agent Compound 1 IV at 20, 25, 30 mg/kg BIW): modest anti-tumor activity
